Assay results: patent US7432283B2, “Heterocyclic GABAA subtype selective receptor modulators” (Roche Palo Alto LLC, priority 2004, dated 2008)

melting point	Structure (SMILES)
158.9 to 161.6 °C	Cc1cc(C)c(N2CCCc3c2nn(C)c3C(C)(C)O)c(C)c1 [Compound 2-16, 2-[7-(2,4,6-trimethyl-phenyl)-2-methyl-4,5,6,7-tetrahydro-2H-pyrazolo[3,4-b]pyridin-3-yl]-propan-2-ol]
90.3 to 91.7 °C	CSc1c2c(nn1C)N(c1c(C)cc(C)cc1C)CCC2 [Compound 2-20, 2-Methyl-3-methylsulfanyl-7-(2,4,6-trimethyl-phenyl)-4,5,6,7-tetrahydro-2H-pyrazolo[3,4-b]pyridine]
181.6 to 183 °C	Cc1cc(C)c(N2CCCc3c2nn(C)c3S(C)(=O)=O)c(C)c1 [Compound 2-21, 3-Methanesulfonyl-2-methyl-7-(2,4,6-trimethyl-phenyl)-4,5,6,7-tetrahydro-2H-pyrazolo[3,4-b]pyridine]
128.5 to 136.6 °C	Cc1cc(C)c(N2CCCc3c2nn(C)c3C#N)c(C)c1 [Compound 2-22, 2-Methyl-7-(2,4,6-trimethyl-phenyl)-4,5,6,7-tetrahydro-2H-pyrazolo[3,4-b] pyridine-3-carbonitrile]
120.5 to 123.5 °C	Cc1cc(C)c(N2CCCc3c2nn(C)c3C=O)c(C)c1 [Compound 2-24, 2-Methyl-7-(2,4,6-trimethyl-phenyl)-4,5,6,7-tetrahydro-2H-pyrazolo[3,4-b] pyridine-3-carbaldehyde]
86.7 to 88.2 °C	CC/C=C(\CCC)c1c2c(nn1C)N(c1c(C)cc(C)cc1Cl)CCC2 [Compound 3-1, 7-(2-Chloro-4,6-dimethylphenyl)-2-methyl-3-(1-propylbut-1-enyl)-4,5,6,7-tetrahydro-2H-pyrazolo[3,4-b]pyridine]
101.6 to 102.6 °C	CC/C=C(\CCC)c1c2c(nn1C)N(c1c(C)cc(C)cc1C)CCC2 [Compound 3-2, 2-Methyl-3-(1-propylbut-1-enyl)-7-(2,4,6-trimethylphenyl)-4,5,6,7-tetrahydro-2H-pyrazolo[3,4-b]pyridine]
101.9 to 103.9 °C	CC/C=C(\CCC)c1c2c(nn1C)N(c1c(C)cc(C)cc1C)CCCC2 [Compound 3-4, 2-Methyl-3-(1-propylbut-1-enyl)-8-(2,4,6-trimethylphenyl)-2,4,5,6,7,8-hexahydro-1,2,8-triazaazulene]
99.6 to 100.6 °C	C=Cc1c2c(nn1C)N(c1ccc(Cl)cc1Cl)CCC2 [Compound 3-7, 7-(2,4-Dichloro-phenyl)-2-methyl-3-vinyl-4,5,6,7-tetrahydro-2H-pyrazolo[3,4-b]pyridine]
64.4 to 67.6 °C	C=Cc1c2c(nn1C)N(c1c(C)cc(C)cc1C)CCC2 [Compound 3-8, 2-methyl-7-(2,4,6-trimethyl-phenyl)-3-vinyl-4,5,6,7-tetrahydro-2H-pyrazolo[3,4-b]pyridine]
91.5 to 92 °C	CCCC(CCC)c1c2c(nn1C)N(c1c(C)cc(C)cc1C)CCC2 [Compound 4-2, 2-Methyl-3-(1-propylbutyl)-7-(2,4,6-trimethylphenyl)-4,5,6,7-tetrahydro-2H-pyrazolo[3,4-b]pyridine]
87.6 to 90.3 °C	CCCC(c1cccs1)c1c2c(nn1C)N(c1c(C)cc(C)cc1C)CCC2 (stereo not drawn) [Compound 4-3, 2-Methyl-3-(1-thiophen-2-ylbutyl)-7-(2,4,6-trimethylphenyl)-4,5,6,7-tetrahydro-2H-pyrazolo[3,4-b]pyridine]
96 to 98.1 °C	CCCC(CCC)c1c2c(nn1C)N(c1c(C)cc(C)cc1C)CCCC2 [Compound 4-4, 2-Methyl-3-(1-propylbutyl)-8-(2,4,6-trimethylphenyl)-2,4,5,6,7,8-hexahydro-1,2,8-triazaazulene]
79.7 to 81.4 °C	CCc1c2c(nn1C)N(c1c(C)cc(C)cc1C)CCC2 [Compound 4-5, 3-Ethyl-2-methyl-7-(2,4,6-trimethyl-phenyl)-4,5,6,7-tetrahydro-2H-pyrazolo[3,4-b]pyridine]
105.9 to 108.9 °C	Cc1cc(C)c(N2CCCc3c2nn(C)c3C(C)C)c(C)c1 [Compound 4-7, 3-Isopropyl-2-methyl-7-(2,4,6-trimethyl-phenyl)-4,5,6,7-tetrahydro-2H-pyrazolo[3,4-b]pyridine]
247.8 to 248.3 °C	Cc1cc(C)c(N2CCCc3c2nn(C)c3C(=O)O)c(Cl)c1 [Compound 5-1, 7-(2-Chloro-4,6-dimethylphenyl)-2-methyl-4,5,6,7-tetrahydro-2H-pyrazolo[3,4-b]pyridine-3-carboxylic acid]
228.6 to 233.9 °C	Cc1cc(C)c(N2CCCc3c2nn(C)c3C(=O)O)c(C)c1 [Compound 5-2, 7-(2,4,6-Trimethylphenyl)-2-methyl-4,5,6,7-tetrahydro-2H-pyrazolo[3,4-b]pyridine-3-carboxylic acid]
171.4 to 175.7 °C	Cc1cc(C)c(N2CCCc3c2nn(C)c3NC(=O)OC(C)(C)C)c(Cl)c1 [Compound 5-3, [7-(2-Chloro-4,6-dimethylphenyl)-2-methyl-4,5,6,7-tetrahydro-2H-pyrazolo[3,4-b]pyridin-3-yl]carbamic acid tert-butyl ester]

melting point	Structure (SMILES)
204 to 207.8 °C	CCOC(=O)Nc1c2c(nn1C)N(c1c(C)cc(C)cc1Cl)CCC2 [Compound 5-4, [7-(2-Chloro-4,6-dimethylphenyl)-2-methyl-4,5,6,7-tetrahydro-2H-pyrazolo[3,4-b]pyridin-3-yl]carbamic acid ethyl ester]
90 to 91 °C	CCCN(CCC)c1c2c(nn1C)N(c1c(C)cc(C)cc1Cl)CCC2 [Compound 5-5, [7-(2-Chloro-4,6-dimethylphenyl)-2-methyl-4,5,6,7-tetrahydro-2H-pyrazolo[3,4-b]pyridin-3-yl]dipropylamine]
88.9 to 91.5 °C	CCCN(CCC)c1c2c(nn1C)N(c1c(C)cc(C)cc1C)CCC2 [Compound 5-35, [2-Methyl-7-(2,4,6-trimethylphenyl)-4,5,6,7-tetrahydro-2H-pyrazolo[3,4-b]pyridin-3-yl]-dipropylamine]
99.3 to 104.9 °C	CCC(CC)Nc1c2c(nn1C)N(c1c(C)cc(C)cc1C)CCC2 [Compound 5-36, (1-Ethylpropyl)-[2-methyl-7-(2,4,6-trimethyl-phenyl)-4,5,6,7-tetrahydro-2H-pyrazolo[3,4-b]pyridin-3-yl]-amine]
96.5 to 102.5 °C	CCC(COC)Nc1c2c(nn1C)N(c1c(C)cc(C)cc1C)CCC2 (stereo not drawn) [Compound 5-40, (1-Methoxymethylpropyl)-[2-methyl-7-(2,4,6-trimethylphenyl)-4,5,6,7-tetrahydro-2H-pyrazolo[3,4-b]pyridin-3-yl]-amine]
100.1 to 104.4 °C	CCCC(COC)Nc1c2c(nn1C)N(c1c(C)cc(C)cc1C)CCC2 (stereo not drawn) [Compound 5-41, (1-Methoxymethylbutyl)-[2-methyl-7-(2,4,6-trimethylphenyl)-4,5,6,7-tetrahydro-2H-pyrazolo[3,4-b]pyridin-3-yl]-amine]
176.9 to 178.9 °C	Cn1nc2c(c1N)CCCN2c1ccc(Cl)cc1Cl [Compound 5-43, 7-(2,4-Dichloro-phenyl)-2-methyl-4,5,6,7-tetrahydro-2H-pyrazolo[3,4-b]pyridin-3-ylamine]
234 to 236 °C	Cc1cc(C)c(N2CCCc3c2nn(C)c3N)c(Cl)c1 [Compound 5-45, 7-(2-Chloro-4,6-dimethyl-phenyl)-2-methyl-4,5,6,7-tetrahydro-2H-pyrazolo[3,4-b]pyridin-3-ylamine]
108.3 to 111 °C	CCCN(CCCC#N)c1c2c(nn1C)N(c1c(C)cc(C)cc1C)CCC2 [Compound 5-48, 4-{[2-Methyl-7-(2,4,6-trimethyl-phenyl)-4,5,6,7-tetrahydro-2H-pyrazolo [3,4-b]pyridin-3-yl]-propyl-amino}-butyronitrile]
143.3 to 144.9 °C	CNc1c2c(nn1C)N(c1c(C)cc(C)cc1C)CCC2 [Compound 5-49, Methyl-[2-methyl-7-(2,4,6-trimethyl-phenyl)-4,5,6,7-tetrahydro-2H-pyrazolo[3,4-b]pyridin-3-yl]-amine]
208.8 to 210.9 °C	Cc1cc(C)c(N2CCCc3c2nn(C)c3N)c(C)c1 [Compound 5-52, 2-methyl-7-(2,4,6-trimethyl-phenyl)-4,5,6,7-tetrahydro-2H-pyrazolo[3,4-b]pyridin-3-ylamine]
142.1 to 149.2 °C	Cn1nc2c(c1C(=O)c1ccccn1)CCCN2c1ccc(Cl)cc1Cl [Compound 6-1, [7-(2,4-Dichloro-phenyl)-2-methyl-4,5,6,7-tetrahydro-2H-pyrazolo[3,4-b]pyridin-2-yl]-methanone]
104.2 to 106.4 °C	CO/N=C(\C)c1c2c(nn1C)N(c1c(C)cc(C)cc1C)CCC2 [Compound 6-4, 1-[2-Methyl-7-(2,4,6-trimethyl-phenyl)-4,5,6,7-tetrahydro-2H-pyrazolo[3,4-b]pyridin-3-yl]-ethanone O-methyl-oxime]
89 to 90.1 °C	CO/N=C/c1c2c(nn1C)N(c1c(C)cc(C)cc1C)CCC2 [Compound 6-5, 2-Methyl-7-(2,4,6-trimethyl-phenyl)-4,5,6,7-tetrahydro-2H-pyrazolo[3,4-b] pyridine-3-carbaldehyde O-methyl-oxime]
120.6 to 122 °C	CCCN(CC1CC1)C(=O)c1c2c(nn1C)N(c1c(C)cc(C)cc1Cl)CCC2 [Compound 7-1, 7-(2-Chloro-4,6-dimethylphenyl)-2-methyl-4,5,6,7-tetrahydro-2H-pyrazolo[3,4-b]pyridine-3-carboxylic acidcyclopropylmethylpropyl amide]
80.3 to 87.7 °C	Cc1cc(C)c(N2CCCc3c2nn(C)c3C(=O)N2CCc3ccccc3C2)c(C)c1 [Compound 7-2, (3,4-Dihydro-1H-isoquinolin-2-yl)-[2-methyl-7-(2,4,6-trimethyl-phenyl)-4,5,6,7-tetrahydro-2H-pyrazolo[3,4-b]pyridin-3-yl]-methanone]
226 to 228 °C	CCC(=O)Nc1c2c(nn1C)N(c1c(C)cc(C)cc1C)CCC2 [Compound 7-3, N-[2-Methyl-7-(2,4,6-trimethylphenyl)-4,5,6,7-tetrahydro-2H-pyrazolo[3,4-b]pyridin-3-yl]propionamide]
133.8 to 135 °C	COCC(=O)Nc1c2c(nn1C)N(c1c(C)cc(C)cc1C)CCC2 [Compound 7-4, 2-Methoxy-N-[2-methyl-7-(2,4,6-trimethyl-phenyl)-4,5,6,7-tetrahydro-2H-pyrazolo[3,4-b]pyridin-3-yl]acetamide]
